Test results reported in publication PMC6269736, “Antimalarial Activity of 4-Metoxychalcones: Docking Studies as Falcipain/Plasmepsin Inhibitors, ADMET and Lipophilic Efficiency Analysis to Identify a Putative Oral Lead Candidate” (Molecules, 2013).
Where two headings read alike, the source gives them in different places.

Experiments:
[1] = in vitro; assay type: cell-based; details: human
Procedure: The cytotoxicity of the compounds was assessed with the HeLa human cell line (cervix adenocarcinoma ATCC# CCl-2) using the MTT (3-(4,5-dimethylthiazol-2-yl)-2,5-diphenyltetrazolium bromide) (Sigma, St. Louis, MO, USA) colorimetric method. Briefly, the cells were plated in 96-well plates (1 × 10^5 cells/well) and incubated for 24 h at 37 °C in a humidified atmosphere with 5% CO2. After 24 h, the wells were washed with culture medium (RPMI + 10% inactivated fetal calf serum + 2 mM L-glutamine) and incubated with the compounds at various concentrations (0.05 to 500 µM). After 48 h incubation, the plates were treated with MTT. The colorimetric reading was performed in a microplate reader Spectramax M5e (Molecular Devices, Sunnyvale, CA, USA) at 550 nm. Cytotoxicity was scored as the percentage reduction in absorbance versus untreated control cultures. All experiments were performed in triplicate. […] The IC50 and LC50 values were calculated using OriginPro8.0 (OriginLab Corporation, Northampton, MA, USA) software. A selectivity index (SI), corresponding to the ratio between the cytotoxic and antiparasitic activities of each compound, was calculated as follows: SI = LC50 HeLa/IC50 Plasmodium falciparum

[2] = test system: P. falciparum clone W2 (chloroquine-resistant); assay: In vitro antiplasmodial activity, Giemsa-stained smear parasitaemia after 48 h; assay type: cell-based, Plasmodium falciparum; details: for IC50: Plasmodium falciparum; for SI (selectivity index): SI = LC50 HeLa/IC50 Plasmodium falciparum
Procedure: The human red blood cells and plasma were ceded by the Fundação Hemominas-Hemonúcleo Divinópolis. The synchronization of the parasites was achieved by sorbitol treatment and parasitaemia was determined microscopically in Giemsa-stained smears.
Briefly, ring-stage parasites in sorbitol-synchronized blood cultures were added to 96-well culture plates with 2% parasitaemia and 2% haematocrit and then incubated with the test compounds. The compounds were diluted in complete media, from 10 mg/mL stock solutions in DMSO, at various concentrations (0.1–30 µM). After 48 h incubation, Giemsa-stained blood smears were taken for microscopic evaluation of parasitaemia. All experiments were performed in triplicate.

[3] = P. falciparum W2, 48 h incubation, triplicate, mean ± spread, read-out: IC50, in vitro antiplasmodial activity
[4] = P. falciparum W2, from IC50, read-out: pIC50 (converted)

Row | Compound | IC50 [2, 3] | IC50 [2, 4] | CC50 at 48 h [1] | SI (selectivity index) [2] | IC50 ([2]; W2, 48 h, read-out: IC50, in vitro antiplasmodial activity) | IC50 ([2]; W2, read-out: pIC50 (converted))
1 | COc1ccc(/C=C/C(=O)c2ccccc2)cc1S(=O)(=O)N(C)C [Compound 1b] | 5.79 ± 0.12 µM | 5.79 µM | 20.7 ± 1.62 µM | 3.6 |  | 
2 | COc1ccc(/C=C/C(=O)c2ccccc2)cc1S(=O)(=O)N1CCCC1 [Compound 1i] | 2.07 ± 0.22 µM | 2.07 µM | 9.18 ± 1.51 µM | 4.4 |  | 
3 | CCN(CC)CCCC(C)Nc1ccnc2cc(Cl)ccc12 (centres unmarked) [CQ, chloroquine, reference compound] |  |  |  |  | 0.45 ± 0.04 µM | 0.454 µM
4 | COc1ccc(/C=C/C(=O)c2ccccc2)cc1S(=O)(=O)Nc1ccc(Cl)c(Cl)c1 [Compound 1f] | 4.33 ± 0.06 µM | 4.33 µM | 19 ± 0.43 µM | 4.4 |  | 
5 | COc1ccc(NS(=O)(=O)c2cc(/C=C/C(=O)c3ccccc3)ccc2OC)cc1 [Compound 1d] | 3.64 ± 0.4 µM | 3.64 µM | 11.1 ± 1.96 µM | 3.0 |  | 
6 | COc1ccc(/C=C/C(=O)c2ccccc2)cc1S(=O)(=O)Nc1ccc(Cl)cc1 [Compound 1e] | 2.83 ± 0.21 µM | 2.82 µM | 10.5 ± 2.27 µM | 3.7 |  | 
7 | CCN(CC)S(=O)(=O)c1cc(/C=C/C(=O)c2ccccc2)ccc1OC [Compound 1g] | 11 ± 0.57 µM | 11 µM | 20.7 ± 1.6 µM | 1.9 |  | 

More lines, main results first:

Row | IC50 [2, 3] | IC50 [2, 4] | Compound | CC50 at 48 h [1] | SI (selectivity index) [2] | IC50 ([2]; W2, 48 h, read-out: IC50, in vitro antiplasmodial activity) | IC50 ([2]; W2, read-out: pIC50 (converted))
8 | 1.96 ± 0.02 µM | 1.96 µM | COc1ccc(/C=C/C(=O)c2ccccc2)cc1S(=O)(=O)NCc1ccccc1 [Compound 1h] | 9.42 ± 2.09 µM | 4.8 |  | 
9 | 2.06 ± 0.05 µM | 2.07 µM | COc1ccc(/C=C/C(=O)c2ccccc2)cc1S(=O)(=O)N1CCOCC1 [Compound 1a] | 18.6 ± 1.26 µM | 9.0 |  | 
10 | 2.03 ± 0.28 µM | 2.03 µM | COc1ccc(/C=C/C(=O)c2ccccc2)cc1S(=O)(=O)Nc1ccccc1 [Compound 1c] | 11.5 ± 0.23 µM | 5.7 |  | 
